Assay results from article PMC10944868, “Synthesis, biological and computational evaluation of novel cyanomethyl vinyl ether derivatives” (Frontiers in Pharmacology, 2024).

Legend:
Assay type in all cases: cell-based
[1] = tested on: SKOV3 (human ovarian carcinoma); experiment: Cytotoxicity assay (CCK8), SKOV3; conditions: SK-OV-3, SKOV3 cells, 48 h
Protocol: (§1) Cells were cultured according to the supplier´s instructions (ATCC technologies, A-549 (CCL-185), BT-20 (HTB-19), SKOV3 (HTB-77), HCT116 (CCL-247), MRC5 (CCL-171). Cells were seeded in 96-well plates at a density of 2–2.5 × 10^3 cells per well and incubated overnight in 0.1 mL of media supplied with 10% Fetal Bovine Serum (Lonza) in 5% CO2 incubator at 37°C. On day 2, drugs were added and samples were incubated for 48 h. After treatment, 10 µL of cell counting kit-8 was added into each well for additional 2 h incubation at 37°C. The absorbance of each well was determined by an Automatic Elisa Reader System at 450 nm wavelength.

[2] = tested on: A549 (carcinomic human alveolar basal epithelial cells); experiment: Cytotoxicity assay (CCK8), A549; conditions: 48 h
Protocol: as §1

[3] = tested on: HCT-116 (human colorectal carcinoma); experiment: Cytotoxicity assay (CCK8), HCT116; conditions: HCT116 cells, 48 h
Protocol: as §1

[4] = tested on: MRC-5 (non-malignant lung fibroblasts); experiment: Cytotoxicity assay (CCK8), MRC5; conditions: Homo sapiens, MRC5 non-cancerous cells, 48 h
Protocol: as §1

[5] = tested on: BT20 (human breast carcinoma); experiment: Cytotoxicity assay (CCK8), BT20; conditions: BT20 cells
Protocol: as §1

Structure (SMILES)	IC50 [1] [µM]	IC50 [2] [µM]	IC50 [3] [µM]	IC50 [4] [µM]	IC50 ([5]; Homo sapiens, BT-20, 48 h) [µM]	IC50 ([5]; 48 h) [µM]
COC(=O)/C=C\OC(C#N)c1cccs1 (stereo not shown) [Compound 10Z]	> 50	> 50	> 50	> 50		
COC(=O)/C=C\OC(C#N)c1ccccc1 (stereo not shown) [Compound 5Z]	29.8 ± 2.09	> 50	> 50	> 50	19.9 ± 3.42	
COC(=O)/C=C/OC(C#N)c1ccccc1 (stereo not shown) [Compound 5E]	3.84 ± 1.56	18.9 ± 1.2	> 50	> 50	8.31 ± 1.26	
COC(=O)/C=C/OC(C#N)c1ccc(F)cc1 (stereo not shown) [Compound 8E]	> 50	> 50	> 50	> 50		
COC(=O)/C=C\OC(C#N)c1ccc(F)cc1 (stereo not shown) [Compound 8Z]	> 50	> 50	> 50	> 50		
COC(=O)/C=C/OC(C#N)c1cccs1 (stereo not shown) [Compound 10E]	> 50	> 50	> 50	> 50		
COC(=O)/C=C\OC(C#N)c1ccc(C)cc1 (stereo not shown) [Compound 9Z]	> 50	> 50	> 50	> 50	20.2 ± 3.78	
CCC(C#N)O/C=C\C(=O)OC (stereo not shown) [Compound 1Z]	> 50	> 50	> 50	> 50	> 50	
COC(=O)/C=C/OC(C#N)c1ccc(OC)cc1 (stereo not shown) [Compound 6E]	12.4 ± 1.18	> 50	> 50	> 50	27.8 ± 5.31	
COC(=O)/C=C\OC(C#N)c1ccc(C(F)(F)F)cc1 (stereo not shown) [Compound 7Z]	> 50	> 50	> 50	> 50	> 50	
COC(=O)/C=C/OC(C#N)c1ccc(C(F)(F)F)cc1 (stereo not shown) [Compound 7E]	2.62 ± 0.53	29.3 ± 1.1	> 50	> 50	10 ± 2.17	
CC(C)OC(=O)/C=C/OC(C#N)c1ccccc1 (stereo not shown) [Compound 4E, Isoropyl (E)-3-(cyano(phenyl)methoxy)acrylate]	> 50	> 50	> 50	> 50		
CCCCCCC(C#N)O/C=C/C(=O)OC (stereo not shown) [Compound 2E]	41.6 ± 2.46	> 50	> 50	> 50	15.8 ± 2.9	
CCCOC(=O)/C=C\OC(C#N)c1ccccc1 (stereo not shown) [Compound 3Z, Propyl (Z)-3-(cyano(phenyl)methoxy)acrylate]	> 50	> 50	> 50	> 50		
CCC(C#N)O/C=C/C(=O)OC (stereo not shown) [Compound 1E]	2.92 ± 0.28	> 50	> 50	> 50	7.07 ± 1.28	
COC(=O)/C=C/OC(C#N)c1ccc(C)cc1 (stereo not shown) [Compound 9E]	8.08 ± 2.08	21.4 ± 0.83	> 50	> 50	4.98 ± 2.77	
COC(=O)/C=C\OC(C#N)c1ccc(OC)cc1 (stereo not shown) [Compound 6Z]	31.3 ± 4.42	> 50	> 50	> 50	12.6 ± 1.76	
COC(=O)/C=C/OC(C#N)c1cc2ccccc2c2ccccc12 (stereo not shown) [Compound 12E]	7.35 ± 1.42	9.89 ± 0.25	16.1 ± 1.2	14.4 ± 0.86	9.89 ± 0.25	7 ± 1.96
CC(C)OC(=O)/C=C\OC(C#N)c1ccccc1 (stereo not shown) [Compound 4Z, Isoropyl (Z)-3-(cyano(phenyl)methoxy)acrylate]	> 50	> 50	> 50	> 50		
CCCCCCC(C#N)O/C=C\C(=O)OC (stereo not shown) [Compound 2Z]	> 50	> 50	> 50	> 50	17.3 ± 3.44	
CCCOC(=O)/C=C/OC(C#N)c1ccccc1 (stereo not shown) [Compound 3E, Propyl (E)-3-(cyano(phenyl)methoxy)acrylate]	> 50	> 50	> 50	> 50		
COC(=O)/C=C\OC(C#N)c1cc2ccccc2c2ccccc12 (stereo not shown) [Compound 12Z]	11.9 ± 1.88	> 50	> 50	> 50	11.9 ± 1.1	
